Assay results taken from paper PMC2902587 (International journal of pharmaceutics, 2010).
Converted amounts (≈) assume the structure as drawn.

How the values were obtained:
[1] = target: T1, MRP2 (Homo sapiens, UniProt Q92887); assay: [14C] erythromycin uptake in MDCK-MRP2 cells; format: cell-based
[2] = target: T1, MRP2; assay: Bidirectional [14C] erythromycin transport across MDCK-MRP2 cell monolayers; format: cell-based
[3] = test system: MRP2; assay: as above; format: cell-based, human; details: human, pH 7.4
[4] = target: T2, P-gp (human MDR1) (Homo sapiens, UniProt P08183); details: MDCKII-MDR1 monolayers
T2 sequence (P08183 whole entry): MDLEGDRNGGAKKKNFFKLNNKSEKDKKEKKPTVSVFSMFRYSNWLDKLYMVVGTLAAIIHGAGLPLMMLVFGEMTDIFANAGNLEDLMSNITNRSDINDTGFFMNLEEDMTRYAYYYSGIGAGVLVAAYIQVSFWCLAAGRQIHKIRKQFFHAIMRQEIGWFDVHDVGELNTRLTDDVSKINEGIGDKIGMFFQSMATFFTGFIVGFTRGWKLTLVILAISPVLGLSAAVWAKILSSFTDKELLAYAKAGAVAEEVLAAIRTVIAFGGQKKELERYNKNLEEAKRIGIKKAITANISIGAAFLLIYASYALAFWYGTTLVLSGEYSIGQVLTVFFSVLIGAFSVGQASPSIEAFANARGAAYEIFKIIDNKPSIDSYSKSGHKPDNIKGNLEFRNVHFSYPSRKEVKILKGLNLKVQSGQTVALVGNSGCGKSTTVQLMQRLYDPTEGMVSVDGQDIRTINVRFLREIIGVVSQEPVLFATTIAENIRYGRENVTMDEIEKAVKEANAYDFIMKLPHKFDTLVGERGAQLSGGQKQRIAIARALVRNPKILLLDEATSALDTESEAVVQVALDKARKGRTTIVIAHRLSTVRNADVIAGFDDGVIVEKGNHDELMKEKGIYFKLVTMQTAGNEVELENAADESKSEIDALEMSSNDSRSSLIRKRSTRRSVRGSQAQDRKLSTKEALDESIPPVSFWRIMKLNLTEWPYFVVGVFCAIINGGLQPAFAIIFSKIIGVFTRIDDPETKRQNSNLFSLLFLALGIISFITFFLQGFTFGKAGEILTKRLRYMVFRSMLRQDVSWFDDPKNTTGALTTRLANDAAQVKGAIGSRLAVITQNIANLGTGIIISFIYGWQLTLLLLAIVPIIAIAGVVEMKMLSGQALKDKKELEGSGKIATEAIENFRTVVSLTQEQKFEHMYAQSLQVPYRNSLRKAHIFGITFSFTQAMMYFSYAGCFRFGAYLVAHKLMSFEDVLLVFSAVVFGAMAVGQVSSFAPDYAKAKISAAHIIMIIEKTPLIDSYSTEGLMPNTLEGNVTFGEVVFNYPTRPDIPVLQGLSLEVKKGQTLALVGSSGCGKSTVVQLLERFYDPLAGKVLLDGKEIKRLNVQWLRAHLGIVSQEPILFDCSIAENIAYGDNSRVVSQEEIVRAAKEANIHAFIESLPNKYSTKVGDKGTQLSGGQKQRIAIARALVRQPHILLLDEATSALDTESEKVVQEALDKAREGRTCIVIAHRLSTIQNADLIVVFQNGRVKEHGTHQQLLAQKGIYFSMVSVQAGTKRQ

[5] = target: T2, P-gp (human MDR1); assay: in vitro; details: MDCK-MDR1, pH 7.4
[6] = target: T2, P-gp (human MDR1); assay: [14C] erythromycin uptake in MDCKII-MDR1 cells; format: cell-based
[7] = target: T3, BCRP (Homo sapiens, UniProt Q9UNQ0); assay: Accumulation of Hoechst 33342 in MDCK-BCRP cells; format: cell-based; details: gatifloxacin 0.5, 1, 2.5, 5 and 10 mM, Hoechst 33342 5μM
T3 sequence (Q9UNQ0 1-655): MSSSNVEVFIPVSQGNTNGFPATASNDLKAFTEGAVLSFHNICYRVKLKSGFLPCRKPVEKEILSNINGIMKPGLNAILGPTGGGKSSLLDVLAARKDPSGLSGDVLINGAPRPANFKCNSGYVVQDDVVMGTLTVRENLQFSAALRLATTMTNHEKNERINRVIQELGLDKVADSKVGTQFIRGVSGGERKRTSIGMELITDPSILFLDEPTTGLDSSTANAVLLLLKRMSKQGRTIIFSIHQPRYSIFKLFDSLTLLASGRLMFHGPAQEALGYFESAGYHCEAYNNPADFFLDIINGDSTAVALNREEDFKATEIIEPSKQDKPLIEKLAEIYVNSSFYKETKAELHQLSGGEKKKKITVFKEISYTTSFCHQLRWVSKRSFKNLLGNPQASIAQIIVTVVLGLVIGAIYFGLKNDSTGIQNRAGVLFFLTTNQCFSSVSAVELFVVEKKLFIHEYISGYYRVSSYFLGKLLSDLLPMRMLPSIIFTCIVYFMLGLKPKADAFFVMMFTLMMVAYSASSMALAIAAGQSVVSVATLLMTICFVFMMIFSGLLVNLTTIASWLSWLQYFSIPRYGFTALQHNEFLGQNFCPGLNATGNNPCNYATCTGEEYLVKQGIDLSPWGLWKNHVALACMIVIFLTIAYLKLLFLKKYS

[8] = test system: MDCKII-MDR1, MDCK-MRP2 and MDCK-BCRP cells; assay: ATP activity assay in MDCK cell lines; format: cell-based, dog; details: all MDCK cell lines, 30 min treatment, 0.75, 1.25, 2.5 and 5mM
[9] = test system: many bacterial species; details: cited from earlier work
[10] = test system: P-gp; details: rat endothelial cell line (RBMEC); ref Li et al. 2009; cited from earlier work

T1 sequence (Q92887 whole entry): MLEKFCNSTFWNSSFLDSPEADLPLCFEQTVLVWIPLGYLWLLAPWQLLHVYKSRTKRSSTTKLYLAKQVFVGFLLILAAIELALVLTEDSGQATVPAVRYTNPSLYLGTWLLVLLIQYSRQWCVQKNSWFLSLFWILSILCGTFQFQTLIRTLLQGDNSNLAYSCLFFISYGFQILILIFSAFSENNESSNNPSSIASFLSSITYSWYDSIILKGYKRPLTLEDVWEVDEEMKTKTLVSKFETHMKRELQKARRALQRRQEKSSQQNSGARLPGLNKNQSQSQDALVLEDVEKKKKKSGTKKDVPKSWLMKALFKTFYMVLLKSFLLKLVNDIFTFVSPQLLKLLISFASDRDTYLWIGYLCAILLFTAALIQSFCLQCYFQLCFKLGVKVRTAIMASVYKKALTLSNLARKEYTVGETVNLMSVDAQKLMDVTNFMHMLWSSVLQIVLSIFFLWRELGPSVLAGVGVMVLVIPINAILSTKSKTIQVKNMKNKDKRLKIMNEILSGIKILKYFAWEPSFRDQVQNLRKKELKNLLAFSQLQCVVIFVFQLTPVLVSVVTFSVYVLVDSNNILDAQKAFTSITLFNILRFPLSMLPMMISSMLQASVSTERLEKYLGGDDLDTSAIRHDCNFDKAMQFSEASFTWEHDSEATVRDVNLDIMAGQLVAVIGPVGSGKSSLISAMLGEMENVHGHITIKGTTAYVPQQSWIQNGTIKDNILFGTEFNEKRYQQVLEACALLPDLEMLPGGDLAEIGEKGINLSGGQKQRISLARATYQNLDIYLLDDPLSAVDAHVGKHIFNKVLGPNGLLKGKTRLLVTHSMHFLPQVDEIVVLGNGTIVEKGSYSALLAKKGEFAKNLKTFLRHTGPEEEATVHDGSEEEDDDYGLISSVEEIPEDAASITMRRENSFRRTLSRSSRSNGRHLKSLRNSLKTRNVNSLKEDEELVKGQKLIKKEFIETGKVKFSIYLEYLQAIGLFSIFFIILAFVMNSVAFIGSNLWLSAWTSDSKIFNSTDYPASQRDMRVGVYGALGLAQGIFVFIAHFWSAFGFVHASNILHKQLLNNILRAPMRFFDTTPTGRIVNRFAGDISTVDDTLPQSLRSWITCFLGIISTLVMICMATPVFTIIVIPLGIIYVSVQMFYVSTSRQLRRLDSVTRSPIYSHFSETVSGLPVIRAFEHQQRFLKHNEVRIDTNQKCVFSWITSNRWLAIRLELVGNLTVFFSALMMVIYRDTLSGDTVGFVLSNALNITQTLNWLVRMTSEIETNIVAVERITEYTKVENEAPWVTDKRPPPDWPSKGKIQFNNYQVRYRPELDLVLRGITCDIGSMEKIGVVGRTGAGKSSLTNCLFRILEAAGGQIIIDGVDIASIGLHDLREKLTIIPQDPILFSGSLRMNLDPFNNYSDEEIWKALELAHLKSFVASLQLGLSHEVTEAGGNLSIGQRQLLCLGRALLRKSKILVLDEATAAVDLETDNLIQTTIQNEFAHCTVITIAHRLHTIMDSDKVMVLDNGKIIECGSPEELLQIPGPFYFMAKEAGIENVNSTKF

| Uptake of [14C] erythromycin higher by ([1]; MDCK-MRP2 cells, 100 μM MK571, 30 min) | efflux ratio at 3 h ([2]; human, pH 7.4) | efflux ratio at 3 h [3] | Papp of [14C] erythromycin in B-A direction relative to AP-BL direction ([4]; erythromycin alone) | efflux ratio at 3 h [5] | SMILES | IC50 [1] | Ki [1] | IC50 [6] | Ki [6] | Effect on efflux ratio of [14C] erythromycin ([2]; MDCK-MRP2 monolayers, increasing concentrations of gatifloxacin) | Effect on Hoechst 33342 uptake [7] | ATP activity of treated cells compared to vehicle control [8] | Effect on efflux ratio of [14C] erythromycin ([4]; increasing concentrations of gatifloxacin) | Minimum inhibitory concentration (MIC) ([9]; against many bacterial species, introduction, no reference given) | Activity relative to the other quinolones ([9]; ref Ba et al. 2006) | Involvement of P-gp in the translocation of gatifloxacin [10] |
| --- | --- | --- | --- | --- | --- | --- | --- | --- | --- | --- | --- | --- | --- | --- | --- | --- |
| 177% | – | – | – | – | CN(C)C(=O)CCSC(SCCC(=O)O)c1cccc(/C=C/c2ccc3ccc(Cl)cc3n2)c1 (stereo not drawn) [MK571] | 188 ± 28.2 µM | 175 ± 18.2 µM | – | – | – | – | – | – | – | – | – |
| – | 5.3 | > 7 | more than fivefold higher | 7.2 | CC[C@H]1OC(=O)[C@H](C)[C@@H](O[C@H]2C[C@@](C)(OC)[C@@H](O)[C@H](C)O2)[C@H](C)[C@@H](O[C@@H]2O[C@H](C)C[C@H](N(C)C)[C@H]2O)[C@](C)(O)C[C@@H](C)C(=O)[C@H](C)[C@@H](O)[C@]1(C)O [[^14C] erythromycin, erythromycin] | – | – | – | – | – | – | – | – | – | – | – |
| – | – | – | – | – | COc1c(N2CCNC(C)C2)c(F)cc2c(=O)c(C(=O)O)cn(C3CC3)c12 (stereo not drawn) [gatifloxacin] | 5230 ± 390 µM | 5370 ± 218 µM | 359 ± 90.1 µM | 385 ± 88.6 µM | continuously became lower and approached unity | not found to be significantly different | No significant difference | progressively decrease and approach unity | 0.1 µg/mL (≈ 0.266 µM) | two- to fourfold more active | did not find any significant involvement |
